From patent US5200426A, “Inhibitors of neutral endopeptidase/CALLA as chemotherapeutic agents” (Board of Regents, The University of Texas, priority 1990, dated 1993)
“Also recorded” adds a separate entry of the source. Square brackets hold non-standard residues; d marks the D form. Peptide text beside a SMILES is read from it. * marks the point of attachment. BrAc = O=C(CBr)*

How the values were obtained:
[1] = biological target: neutral endopeptidase 24.11 (NEP); assay: Competitive inhibition of neutral endopeptidase (NEP); type: biochemical; conditions: read-out: Ki (competitive inhibitor)
Source text: (§1) The efficacy of endopeptidase inhibitors may be assessed by determining cell numbers and the percent of viable cells (e.g., assessed by trypan blue exclusion) as a function of time in culture in the presence and absence of the endopeptidase inhibitors. In addition the level of neutral endopeptidase activity will be measured and correlated with these parameters. Since the enzyme is on the cell surface its activity can be measured by simply adding substrate to the cell culture. The kinetics of inactivation of purified enzyme can also be assessed. A graphical analysis of the inactivation constant (kobs) versus the inhibitor concentration can be plotted. If the inhibitor binds to the active site of the enzyme this graph should be hyperbolic. The data can then be analyzed in a double reciprocal plot of 1/kobs versus 1/[Inhibitor]. This should yield a straight line from which the dissociation constant for the inhibitor (Ki) and the maximal rate of inactivation k(inact) can be obtained. […] This type of analysis has previously been conducted to characterize the reaction of both phenylglyoxal and N-bromoacetyl-D-Leu-Gly with the enzyme.
NEP: glutaryl-Ala-Ala-Phe-MNA →glutaryl-Ala-Ala + Phe-MNA Aminopeptidase: Phe-MNA →Phe + MNA MNA =4-methoxy-2-naphthylamine

[2] = tested on: neutral endopeptidase 24.11 (NEP); assay: Affinity labelling / irreversible inactivation of NEP; type: biochemical
Source text: as §1

[3] = tested on: Nalm-6 cells (CALLA+ human leukemic cell line); assay: Growth of Nalm-6 cells (viable cell counts daily); type: cell-based; conditions: for growth of Nalm-6 cells: bolus or daily addition, FIG. 4; for growth of Nalm-6 cells in conditioned media: 50-50 mixture of fresh media and media from a five-day culture, FIG. 5; for cell growth of Nalm-6: nanomolar to micromolar concentrations, FIG. 1 and 3
Method: FIG. 1--Effect of NEP Inhibitors on the Growth of Nalm-6, A2/3, and J558 Cell Lines. The two NEP inhibitors phosphoramidon (1 μM) and carboxyphenylethyl-Phe-β-Ala (20 μM) were added to cells plated in quadruplicate at a density of 100,000 cells/ml in 24 well microtiter plates. The number of viable cells was determined daily. FIG. 3--Correlation of Cell Growth with NEP Activity. Nalm-6 cells were treated with 10 nM phosphoramidon added either as a bolus (circles) or daily (triangles). Cells were initially plated at 200,000 cells/ml. Control cells without added inhibitor are shown as squares. Aliquots were taken daily for determining cell density. To the remainder of the sample was added glutaryl-[…] and NEP activity determined. […] Cells counts were conducted daily. FIG. 5--The Effect of NEP Inhibitors on Nalm-6 Cells Grown in Fresh or Conditioned Media. Nalm-6 cells were grown in fresh media or a 50--50 mixture of fresh media and media taken from a five-day culture. The pH of the conditioned media was adjusted to that of the fresh media. Cell counts were performed daily. The efficacy of endopeptidase inhibitors may be assessed by determining cell numbers and the percent of viable cells (e.g., assessed by trypan blue exclusion) as a function of time in culture in the presence and absence of the endopeptidase inhibitors. In addition the level of neutral endopeptidase activity will be measured and correlated with these parameters. Since the enzyme is on the cell surface its activity can be measured by simply adding substrate to the cell culture. The kinetics of inactivation of purified enzyme can also be assessed. A graphical analysis of the inactivation constant (kobs) versus the inhibitor concentration can be plotted. If the inhibitor binds to the active site of the enzyme this graph should be hyperbolic. The data can then be analyzed in a double reciprocal plot of 1/kobs versus 1/[Inhibitor]. This should yield a straight line from which the dissociation constant for the inhibitor (Ki) and the maximal rate of inactivation k(inact) can be obtained. […] This type of analysis has previously been conducted to characterize the reaction of both phenylglyoxal and N-bromoacetyl-D-Leu-Gly with the enzyme. […] Nalm-6 and Nall-1 are leukemic cell lines generally representative of CALLA+ lymphoblastic leukemias. […] The number of viable cells was determined daily. In FIG. 2, the NEP inhibitors phosphoramidon (PA;10 nM) and carboxyphenylethyl-Phe-β-Ala (10 μM) were added to Nall-1 and, in a separate experiment, to SMS-SB cells plated at a density of 200,000 cells/ml. The inhibitors were added either once on Day 0 as a bolus (closed circle and square) or daily (open circle or triangle). The number of viable cells was determined daily. The inhibition of cell growth by these NEP specific inhibitors appeared somewhat transient and correlated with the recovery of NEP activity. […] Control cells without added inhibitor are shown as squares. Cells were initially plated at a density of 200,000 cells/ml. Aliquots were taken daily for determining cell density. To the remainder of the sample was added glutaryl-[…] and NEP activity was determined.

[4] = tested on: SMS-SB cells (CALLA- human leukemic cell line); assay: Growth of SMS-SB cells (viable cell counts daily); type: cell-based; conditions: 10 μM, bolus or daily addition; FIG. 4
Method: FIG. 2--Effect of NEP Inhibitors on the Growth of Nall-1 and SMS-SB Cell Lines. The NEP inhibitors phosphoramidon (10 nM) and carboxyphenylethyl-Phe-β-Ala(10 μM) were added to cells plated at a density of 200,000 cells/ml. The inhibitors were added either once on Day 0 as a bolus (closed circle and square) or daily (open circle or triangle). The number of viable cells was determined daily. […] Cells counts were conducted daily. […] Nalm-6 and Nall-1 are leukemic cell lines generally representative of CALLA+ lymphoblastic leukemias. […] The number of viable cells was determined daily. In FIG. 2, the NEP inhibitors phosphoramidon (PA;10 nM) and carboxyphenylethyl-Phe-β-Ala (10 μM) were added to Nall-1 and, in a separate experiment, to SMS-SB cells plated at a density of 200,000 cells/ml. The inhibitors were added either once on Day 0 as a bolus (closed circle and square) or daily (open circle or triangle). The number of viable cells was determined daily.

[5] = tested on: Nall-1 cells (CALLA+ human leukemic cell line); assay: Growth of Nall-1 cells (viable cell counts daily); type: cell-based; conditions: nanomolar to micromolar concentrations; FIG. 2
Method: FIG. 2--Effect of NEP Inhibitors on the Growth of Nall-1 and SMS-SB Cell Lines. The NEP inhibitors phosphoramidon (10 nM) and carboxyphenylethyl-Phe-β-Ala(10 μM) were added to cells plated at a density of 200,000 cells/ml. The inhibitors were added either once on Day 0 as a bolus (closed circle and square) or daily (open circle or triangle). The number of viable cells was determined daily. […] Nalm-6 and Nall-1 are leukemic cell lines generally representative of CALLA+ lymphoblastic leukemias. […] The number of viable cells was determined daily. In FIG. 2, the NEP inhibitors phosphoramidon (PA;10 nM) and carboxyphenylethyl-Phe-β-Ala (10 μM) were added to Nall-1 and, in a separate experiment, to SMS-SB cells plated at a density of 200,000 cells/ml. The inhibitors were added either once on Day 0 as a bolus (closed circle and square) or daily (open circle or triangle). The number of viable cells was determined daily.

[6] = biological target: T1, NEP (CALLA) on intact Nalm-6 cells (Homo sapiens, UniProt P08473); assay: NEP activity of intact cells (glutaryl-Ala-Ala-Phe-MNA substrate); type: cell-based
T1 construct: NEP is a normal constituent of Nalm-6 cells; endogenous in cells; host or cells: Nalm-6 (human CALLA+ leukemic cell line)
T1 sequence (P08473 whole entry): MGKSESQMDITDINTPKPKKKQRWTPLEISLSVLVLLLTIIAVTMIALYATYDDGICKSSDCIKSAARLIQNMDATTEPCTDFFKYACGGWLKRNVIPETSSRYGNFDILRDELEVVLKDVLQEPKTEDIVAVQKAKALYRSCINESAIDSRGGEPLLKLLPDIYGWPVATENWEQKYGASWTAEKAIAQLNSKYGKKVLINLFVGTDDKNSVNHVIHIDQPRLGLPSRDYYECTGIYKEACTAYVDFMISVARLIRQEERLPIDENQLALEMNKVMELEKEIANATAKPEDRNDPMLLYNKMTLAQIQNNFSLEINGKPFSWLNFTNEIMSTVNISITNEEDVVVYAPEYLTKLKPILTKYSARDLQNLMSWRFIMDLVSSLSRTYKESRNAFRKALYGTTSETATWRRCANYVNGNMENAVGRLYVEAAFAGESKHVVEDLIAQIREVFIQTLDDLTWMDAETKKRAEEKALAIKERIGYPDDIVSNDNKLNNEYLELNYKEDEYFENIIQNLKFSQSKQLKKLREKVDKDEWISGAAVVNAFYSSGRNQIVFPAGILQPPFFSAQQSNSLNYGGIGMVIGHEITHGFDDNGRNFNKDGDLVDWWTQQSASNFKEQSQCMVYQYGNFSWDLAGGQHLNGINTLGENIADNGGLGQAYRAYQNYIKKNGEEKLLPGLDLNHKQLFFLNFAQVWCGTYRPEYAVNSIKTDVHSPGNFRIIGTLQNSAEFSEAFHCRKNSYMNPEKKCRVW
Method: FIG. 3--Correlation of Cell Growth with NEP Activity. Nalm-6 cells were treated with 10 nM phosphoramidon added either as a bolus (circles) or daily (triangles). Cells were initially plated at 200,000 cells/ml. Control cells without added inhibitor are shown as squares. Aliquots were taken daily for determining cell density. To the remainder of the sample was added glutaryl-[…] and NEP activity determined. The efficacy of endopeptidase inhibitors may be assessed by determining cell numbers and the percent of viable cells (e.g., assessed by trypan blue exclusion) as a function of time in culture in the presence and absence of the endopeptidase inhibitors. In addition the level of neutral endopeptidase activity will be measured and correlated with these parameters. Since the enzyme is on the cell surface its activity can be measured by simply adding substrate to the cell culture. The kinetics of inactivation of purified enzyme can also be assessed. A graphical analysis of the inactivation constant (kobs) versus the inhibitor concentration can be plotted. […] The data can then be analyzed in a double reciprocal plot of 1/kobs versus 1/[Inhibitor]. […] To the remainder of the sample was added glutaryl-[…] and NEP activity was determined. […] The NEP activity of intact cells in the presence of the inhibitors has been measured during the course of experiments similar to those shown in FIG. 1. […]

L3 myoblast cell line = assay: L3 myoblast cell line, formation of myotubules; type: cell-based

Row | Structure (SMILES) | irreversible inhibition / affinity labelling of NEP [2] | growth of Nalm-6 cells ([3]; 10 μM) | growth of CALLA- SMS leukemic cell line [4] | growth of Nalm-6 cells in conditioned media [3] | cell growth of Nalm-6 [3] | cell growth of Nall-1 [5] | enzyme (NEP) activity in conditioned vs fresh media [6] | other results
1 | CC(C)C[C@@H](NC(=O)CBr)C(=O)NCC(=O)O [BADLG, N-bromoacetyl-D-Leu-Gly] (BrAc-[dL]-Gly-OH) | irreversible inhibitor | – | – | – | – | – | – | Ki [1]: 5 mM; mol incorporated per mol of enzyme ([2]; irreversible inhibition): 1 mol per mol of enzyme
2 | C[C@H](NC(=O)[C@@H](Cc1ccccc1)NC(=O)CBr)C(=O)O [bromoacetyl-D-Phe-Ala] | not an affinity label of NEP | – | – | – | – | – | – | –
3 | C[C@H](CS)C(=O)N1CCC[C@H]1C(=O)O [captopril, HS--CH2 --CH(CH3)--CO--Pro] | – | without effect | neither thiorphan nor captopril affect the growth | – | – | – | – | –
4 | O=C(O)CCNC(=O)[C@H](Cc1ccccc1)NC(Cc1ccccc1)C(=O)O (stereo partly drawn) [carboxyphenylethyl-Phe-β-Ala] | – | – | – | the cells grow | cell growth was inhibited; also recorded: inhibit cell growth | cell growth was inhibited; also recorded: inhibit cell growth | just as effectively inhibited in the conditioned media as in the fresh media | –
5 | CC(C)C[C@H](NP(=O)(O)O[C@@H]1O[C@@H](C)[C@H](O)[C@@H](O)[C@H]1O)C(=O)N[C@@H](Cc1c[nH]c2ccccc12)C(=O)O [phosphoramidon] | – | – | – | the cells grow | cell growth was inhibited; also recorded: inhibit cell growth | cell growth was inhibited; also recorded: inhibit cell growth | just as effectively inhibited in the conditioned media as in the fresh media | duration of inhibition of cell growth at higher inhibitor concentration ([3]; 10 μM): growth is inhibited during the entire course of the experiment; growth of Nalm-6 cells in dialyzed conditioned media ([3]; conditioned media dialyzed against fresh media, cut-off 14,000): cell growth was once again inhibited; effect on L3 myoblast cell line (formation of myotubules) (L3 myoblast cell line): unaffected
6 | O=C(O)CNC(=O)C(CS)Cc1ccccc1 (stereo not shown) [thiorphan, HS--CH2 --CH(CH2 --.phi.)--CO--Gly] | – | inhibits the growth | neither thiorphan nor captopril affect the growth | – | – | – | – | –
